Test results as given in patent publication US12486256B2, “Crystal forms of crenolanib and methods of use thereof” (Arog Pharmaceuticals, Inc., priority 2020, dated 2025).

What was measured:
Format in all cases: physicochemical
[1] = Dynamic Vapor Sorption (DVS), hygroscopicity of polymorphic forms; settings: for form change during DVS cycling / post-DVS (XRPD): XRPD of retained solid
Experimental: Dynamic Vapor Sorption (DVS) was used to determine the hygroscopicity of stable polymorphic forms. Approximately 10-20 milligrams of sample was placed in to a mesh vapor sorption balance pan and loaded into an intrinsic dynamic vapor sorption balance by Surface Measurement Systems. The sample was subjected to ramping profile from 40-90% relative humidity (RH) at 10% increments, maintain the sample at each step until as table weight had been achieved (dm/dt 0.0004%, minimum step length 30 minutes, maximum step length 500 minutes) at 25° C. After completion of the sorption cycle, the sample was dried using the same procedure to 0% RH and then a second sorption cycle back to 40% RH. Two cycles were performed. The weight change during the sorption/desorption cycles were plotted, allowing for the hygroscopic nature of the sample tot be determined. XRPD was then carried out on any solid retained to determine if there was change between polymorphic forms during the process.

[2] = Competitive slurry, thermodynamic stability of crystalline forms; settings: competitive slurry conditions, Form III seeds present; monobenzenesulfonate
[3] = TGA/DSC, thermal degradation; settings: 10° C./min
Experimental: Thermogravimetric Analysis/Differential Scanning calorimetry (TGA/DSC) was used to determine the phase transition and degradation points as well as the hydrated/solvated states of the various polymorphic forms identified. Approximately 5-10 milligrams of material was added into a pre-tared open aluminum pan and loaded into a TA Instruments SDT 650 Auto-Simultaneous DSC and held at room temperature. The sample was then heated at a rate of 10° C./min from 30° C. to 400° C. during which time the change in sample weight was recorded along with the heat flow response (DSC). Nitrogen was used as the sample purge gas, at a flow rate of 200 cm^3/min. Skilled artisans will appreciate that ambient laboratory conditions may cause slight variability in these readings.

[4] = Solubility in aqueous solutions; settings: aqueous solutions at neutral pH
[5] = DVS, 25° C., monobenzenesulfonate
[6] = DVS at 90% relative humidity, 25° C., monobenzenesulfonate

With `CC1(COc2ccc3c(c2)ncn3-c2ccc3cccc(N4CCC(N)CC4)c3n2)COC1.O=S(=O)(O)c1ccccc1` [Form I, 1-[2-[5-[(3-Methyl-3-oxetanyl)methoxy]-1H-benzimidazol-1-yl]-8-quinolinyl]-4-piperidinamine monobenzenesulfonate] the “form change during DVS cycling / post-DVS (XRPD)” value ([1]; monobenzenesulfonate) was “No form change”, the hygroscopicity [1, 5] was “non-hygroscopic” and the “thermodynamic stability / form conversion” value [2] was “will convert to Form III”.

In the case of `CC1(COc2ccc3c(c2)ncn3-c2ccc3cccc(N4CCC(N)CC4)c3n2)COC1.O=S(=O)(O)c1ccccc1` [Form II, 1-[2-[5-[(3-Methyl-3-oxetanyl)methoxy]-1H-benzimidazol-1-yl]-8-quinolinyl]-4-piperidinamine monobenzenesulfonate], the “onset of thermal degradation” value [3] is reported as 165 °C, the “solubility relative to other forms” value [4] is reported as “more soluble in aqueous solutions at neutral pH than the anhydrous Forms I and III” and the mass uptake [1, 6] is reported as “approximately 1.5%”. The “form change during DVS cycling / post-DVS (XRPD)” value ([1]; monobenzenesulfonate) was “No form change” and the hygroscopicity [1, 5] was “slightly hygroscopic”.

With `CC1(COc2ccc3c(c2)ncn3-c2ccc3cccc(N4CCC(N)CC4)c3n2)COC1.O=S(=O)(O)c1ccccc1` [Form III, 1-[2-[5-[(3-Methyl-3-oxetanyl)methoxy]-1H-benzimidazol-1-yl]-8-quinolinyl]-4-piperidinamine monobenzenesulfonate] the mass uptake [1, 6] was “approximately 1.5%”, the “form change during DVS cycling / post-DVS (XRPD)” value ([1]; monobenzenesulfonate) was “No form change” and the hygroscopicity [1, 5] was “slightly hygroscopic”. For the same compound, the “thermodynamic stability / form conversion” value [2] was “most thermodynamically stable crystalline form”.

In the case of `CC1(COc2ccc3c(c2)ncn3-c2ccc3cccc(N4CCC(N)CC4)c3n2)COC1.O=S(=O)(O)c1ccccc1` [Form IV, 1-[2-[5-[(3-Methyl-3-oxetanyl)methoxy]-1H-benzimidazol-1-yl]-8-quinolinyl]-4-piperidinamine monobenzenesulfonate], the “onset of thermal degradation” value ([3]; monobenzenesulfonate) is reported as 241 °C, the “form change during DVS cycling / post-DVS (XRPD)” value ([1]; monobenzenesulfonate) is reported as “converts to the hemi-hydrated Form II” and the hygroscopicity [1, 5] is reported as “hygroscopic”. The mass uptake ([1]; DVS, desolvated form, between 0% and 10% humidity) was 1.5% and the “mass loss (desolvation)” value ([1]; DVS, during the first cycle) was 9.4%.
